Here are results for one substance from US6566047B1, “Method for identifying neurite-growth promoting agents” (The Regents of the University of Colorado, priority 1998, dated 2003).

Assay [1] has as its system MAT-Lu cells. Kind of assay: Pseudopod morphometry (pseudopod length assay), MAT-Lu cells. It counts as cell-based, rat. Summed up: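 Cells plated at 1×10^4 per 35-mm dish overnight, shifted to serum-free medium 1 h, then exposed to thrombin, AA or HETEs in medium or by local micropipette puff. Phase-contrast images over time at heated stage; length measured from nucleus centre to process tip, analysed by gamma regression and non-parametric tests.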

Assay [2] deals with growth cones in cultures of rat cerebral cortex. Kind of assay: Growth cone collapse assay in cortical neuron culture. The conditions noted are these: thrombin 100 nM. The format is cell-based. A digest of the protocol: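 Cortical explants from E18 Sprague-Dawley rats were grown 2–3 days on poly-D-lysine, serum-free after 24 h, then pre-incubated 30–60 min at 37 °C with inhibitor or vehicle before repellent factor challenge for 1–30 min. Collapse was graded in randomly selected growth cones in aldehyde-fixed cultures (fixed after 7 min) or imaged live.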

The subject of assay [3] is 12-Lox. Kind of assay: Eicosanoid (HETE) generation in GCPs. It counts as biochemical, rat. As to the method:
Eicosanoid Assays. Eicosanoid production in GCPs was measured by metabolic labelling from ^14C-AA or ^14C-AA-PC or by mass spectrometric detection. […] To measure Lox activity directly, without PLA2 involvement, ^3H-AA was the substrate of choice. Reactions were stopped by the addition of chloroform/methanol as for the phospholipase assays. Reaction products were extracted as described by Birkle et al., Neuromethods, vol. 7, pp.227-244 (Humana Press, N.J. 1988), spotted on pre-activated si gel 60 TLC plates, and the plates developed in the upper phase of ethyl acetate/isooctane/acetic acid/water (100:60:20:100). AA and HETEs were identified by co-migration with standards. Appropriate bands were counted by liquid scintillation spectrometry.
For mass-spectrometric (MS) identification of HETEs, two different strategies were pursued:
(1) the appropriate bands from non-labelled samples (PC substrate) were scraped from the TLC plate into ether/methanol (9:1) and stored under N2 at −20° C. Authentic 12(S)-HETE, run alongside in the same manner, was used as a standard. Just prior to analysis, samples were passed over an SPE filter to eliminate silica particles, dried under argon, resuspended in 500 μl ethanol, and injected (at 3 μl/min) into a Finnigan LCQ quadrupole ion trap mass spectrometer (Finnigan MAT, San Jose, Calif.) equipped with an electrospray ionization source. All spectra were acquired at a capillary temperature of 80° C., and ion guide voltages were tuned to maximize the abundance of the deprotonated ion species [M-H]^− in negative mode. In order to generate a spectrum, typically 100 single scans were averaged.
(2) For the other strategy (liquid chromatography/tandem MS, LC/MS^2), the reaction substrate consisted of 3.5 μM AA, with the addition of 3.5 μM deuterated AA (AA-D8) plus 1 μCi ^3H-AA to track reaction products by mass and radioactivity, respectively. Reactions were stopped with ice-cold ethanol, the mixtures kept overnight at −20° C. under N2, and the proteins spun out The supernatants were diluted with H2O and loaded onto 1-ml C18 Sep-Pak columns (Varian). After washing with H2O, eicosanoid was eluted with 2 ml methanol. These samples were resolved by reverse-phase HPLC, and the eluted fractions analyzed by tandem MS on-line (MacMillan and Murphy, 1995). Collision-induced decomposition of HETE isomers produced characteristic fragments that were identified at the second MS stage.

Consider “thrombin: potent growth cone repellent; commercially available thrombin (Sigma); rat thrombin in Boyden assays”, for which the “time to pseudopod retraction after addition to cells in culture dish” value in assay [1] lay within 5 to 10 min. For the same substance, the “effect of agent alone on pseudopod length” value in assay [1] (typically 15 min exposure) is “caused pseudopod shortening in MAT-Lu cells within minutes of administration”. In assay [2], the “time until most growth cones are fully collapsed” value is 10 to 20 min. Further, the “growth cone collapse, agent alone” value in assay [2] (TRAP (100 mM), 12(S)-HETE 10^−7 M) is “most growth cones are fully collapsed”. Moreover, the “effect on HETE production from AA” value in assay [3] (3H-AA substrate) is given as “does indeed stimulate HETE production from AA”. The “increase of radioactivity co-migrating with 12-HETE above control” value in assay [3] (14C-AA-PC substrate, thrombin 100 nM) is “approximately 2.5 fold”. The “increase of MS peak at m/z 381 in TLC band co-migrating with 12(S)-HETE” value in assay [3] (GCPs first stimulated with thrombin) is around 2 fold. For the same substance, the “increase in generation of compound co-migrating with 12(S)-HETE from 14C-AA-labelled phospholipid, relative to controls” value in assay [3] (growth cones stimulated with thrombin) is recorded as 4-8 fold.
